Where two headings read alike, the source gives them in different places. A value given as a limit tells only on which side of the number the result lay.

Results on 21 compounds are retold here after US10882838B2, “Cannabinergic compounds and uses thereof” (Northeastern University, priority 2012, dated 2021).

One data set addresses CB1 receptor (Rattus norvegicus (Rat), UniProt P20272). In words: rCB1 competition-equilibrium binding with [3H]CP-55,940, rat brain membranes. The note with it: rat brain membranes, [3H]CP-55,940; read-out: rCB1 Ki. As for the experimental part:
Frozen rat brains (CB1 source) are obtained from Pel-Freeze Biologicals (Rogers, Ak.) and stored at −80° C. until use. Membranes are prepared according to the method described by Dodd et al. and used in our laboratory as reported.
(§1) All the cannabinoids discussed in this invention are tested for their ability to bind to CB1 and CB2 receptors using membranes from rat brain or HEK293 cells expressing either mCB2 or hCB2, respectively via competition-equilibrium binding using [^3H]CP-55,940. Results are analyzed using nonlinear regression to determine ligand IC50 (Prism by GraphPad Software, Inc.), and Ki values are calculated from the IC50. IC50 and Ki values are determined from at least three independent experiments.

Another data set concerns the target hCB2 receptor (Homo sapiens (Human), UniProt P34972). In words: hCB2 competition-equilibrium binding with [3H]CP-55,940, membranes of HEK293 cells expressing hCB2. The method, then: (§2) HEK293 cells expressing hCB1 or hCB2 or mCB2 receptor are used for membrane preparations according to Abadji et al. The resulting pellet is resuspended in 10 mM Tris-chloride, pH 7.4, with 5 mM MgCl2 and 2 mM EDTA (TME), rapidly frozen in liquid nitrogen and stored at −80° C. for no longer than two months. Protein content is assayed by using the Bio-Rad protein assay according to the manufacturer's protocol.
as §1

Data set [1] can be described thus: Stability in plasma (half-life). The note with it: method: 200 μM in plasma, 37°; species of plasma not given. The class given is in vitro ADME, rat or monkey. As for the experimental part: The designed compounds carry a side chain that is susceptible to plasma esterase activity, inviting their rapid deactivation. Thus, it is important to characterize the rate of compound metabolism in isolated rat or monkey plasma. As a preliminary predictor of oral stability, this assay will also be done in buffers at pH 2 (to emulate the stomach) and pH 7.4 (physiological pH). Compounds (10 mM in DMSO) are diluted in plasma, acetonitrile or buffer to a concentration of 200 μM and incubated in a 37° shaking water bath for 2 hours. Samples are taken periodically, diluted 1:4 with acetonitrile and centrifuged to precipitate protein. The resulting supernatant is analyzed by HPLC to predict expected in vivo plasma half-lives.

The target in another data set is mCB2 receptor (Mus musculus (Mouse), UniProt P47936). The data set is described as follows: mCB2 competition-equilibrium binding with [3H]CP-55,940, membranes of HEK293 cells expressing mCB2. Particulars: HEK293 cells expressing mCB2, [3H]CP-55,940; read-out: mCB2 Ki. As for the experimental part:
as §2, §1

Where [2] appears, read: HEK293 cells expressing hCB2, [3H]CP-55,940, read-out: hCB2 Ki.

For the compound `CC1=CCC2[C@@H](C1)c1c(O)cc(C(C)(C)C(=O)OCCCCC#N)cc1OC2(C)C` (stereo in doubt) [Compound 1.3, 4-cyanobutyl-2-((6aS, 10aR)-6a, 7, 10, 10a-tetrahydro-1-hydroxy-6,6,9-trimethyl-6H-benzo[c]chromen-3-yl)-2-methylpropanoate], the values for the Ki at CB1 receptor and at hCB2 receptor were 0.7 nM and 0.8 nM, respectively. In addition, the half-life at 200 μM in data set [1] came out at 40 min.

Take `CC1=CC[C@H]2[C@@H](C1)c1c(O)cc(C(C)(C)C(=O)OCCCCBr)cc1OC2(C)C` [Compound 1.2, 4-bromobutyl-2-((6aS,10aR)-6a,7,10,10a-tetrahydro-1-hydroxy-6,6,9-trimethyl-6H-benzochromen-3-yl)-2-methylpropanoate]: the Ki at CB1 receptor is 1.2 nM; on mCB2 receptor, 0.6 nM; on hCB2 receptor (setting [2]) it was 0.8 nM. For the same compound, the “t 1/2” value in data set [1] was 15 min.

Consider `CC1=CC[C@@H]2[C@@H](C1)c1c(O)cc(C(C)(C)C(=O)OCCCCn3ccnc3)cc1OC2(C)C` [Compound 1.6, 4-(1H-imidazol-1-yl)butyl 2-((6aR,10aR)-6a,7,10,10a-tetrahydro-1-hydroxy-6,6,9-trimethyl-6H-benzo[c]chromen-3-yl)-2-methylpropanoate], for which the figures for the Ki at CB1 receptor, at mCB2 receptor and at hCB2 receptor (setting [2]) were 29.1 nM, 11.6 nM and 8.7 nM, respectively. Besides, in data set [1], the half-life at 200 μM came to 120 min.

As for `CC1=CC[C@@H]2[C@@H](C1)c1c(O)cc(C(C)(C)C(=O)OCCCn3ccnc3)cc1OC2(C)C` [Compound 1.10, 3-(1H-imidazol-1-yl)propyl-2-((6aR,10aR)-6a,7,10,10a-tetrahydro-1-hydroxy-6,6,9-trimethyl-6H-benzo[c]chromen-3-yl)-2-methylpropanoate], the Ki came out at 3.4 nM at CB1 receptor, 2 nM at mCB2 receptor and 1.2 nM at hCB2 receptor (setting [2]). Moreover, the half-life at 200 μM in data set [1] stood at 240 min.

Regarding `CCCCOC(=O)C(C)c1cc(O)c2c(c1)OC(C)(C)[C@@H]1CC=C(C)C[C@@H]21` (stereo partly drawn) [Compound 1.12, Butyl 2-((6aR,10aR)-1-hydroxy-6,6,9-trimethyl-6a,7,10,10a-tetrahydro-6H-benzo[c]chromen-3-yl)propanoate], the Ki turned out to be 0.7 nM at CB1 receptor, 1.2 nM at mCB2 receptor and 1 nM at hCB2 receptor (setting [2]). In addition, the half-life at 200 μM in data set [1] was determined as 3 min.

As for `CCCCOC(=O)[C@H](C)c1cc(O)c2c(c1)OC(C)(C)[C@@H]1CC=C(C)C[C@@H]21` [Compound 1.14, (R)-butyl 2-((6aR,10aR)-1-hydroxy-6,6,9-trimethyl-6a,7,10,10a-tetrahydro-6H-benzo[c]chromen-3-yl)propanoate], the Ki at CB1 receptor was determined as 0.9 nM; at mCB2 receptor, 1.4 nM; at hCB2 receptor (setting [2]) it was 1.4 nM. In data set [1], the half-life at 200 μM worked out at 7 min.

On to `CCCCOC(=O)[C@@H](C)c1cc(O)c2c(c1)OC(C)(C)[C@@H]1CC=C(C)C[C@@H]21` [Compound 1.16, (S)-butyl 2-((6aR,10aR)-1-hydroxy-6,6,9-trimethyl-6a,7,10,10a-tetrahydro-6H-benzo[c]chromen-3-yl)propanoate], for which the figures for the Ki on CB1 receptor, on mCB2 receptor and at hCB2 receptor (setting [2]) were 2.4 nM, 1.3 nM and 1.5 nM, respectively. This compound also displayed a half-life at 200 μM in data set [1] of 6 min.

As for `CC(C)(C(=O)O)c1cc(O)c2c(c1)OC(C)(C)[C@@H]1CC=C(CO)C[C@@H]21` [Compound 2.1, 2-((6aR, 10aR)-6a,7,10,10a-tetrahydro-1-hydroxy-9-(hydroxymethyl)-6,6-dimethyl-6H-benzo[c]chromen-3-yl)-2-methylpropanoic Acid], the Ki at CB1 receptor, on mCB2 receptor and at hCB2 receptor (setting [2]) was over 10000 nM throughout.

On to `CC1(C)Oc2cc(CC(=O)O)cc(O)c2[C@@H]2CC(=O)CC[C@H]21` [Compound 3.1, 2-((6aR,10aR)-6a,7,8,9,10,10a-hexahydro-1-hydroxy-6,6-dimethyl-9-oxo-6H-benzo[c]chromen-3-yl)acetic acid], for which the Ki on CB1 receptor, at mCB2 receptor and at hCB2 receptor (setting [2]) was over 10000 nM in each case.

For `CCCCOC(=O)Cc1cc(O)c2c(c1)OC(C)(C)[C@@H]1CCC(=O)C[C@@H]21` [Compound 3.2, Butyl-2-((6aR,10aR)-6a,7,8,9,10,10a-hexahydro-1-hydroxy-6,6-dimethyl-9-oxo-6H-benzo[c]chromen-3-yl)acetate], the Ki on CB1 receptor, on mCB2 receptor and at hCB2 receptor (setting [2]) was 1000 nM each time.

For the compound `CC(C)(C(=O)O)c1cc(O)c2c(c1)OC(C)(C)[C@@H]1CCC(=O)C[C@@H]21` [Compound 3.3, 2-((6aR,10aR)-6a,7,8,9,10,10a-hexahydro-1-hydroxy-6,6-dimethyl-9-oxo-6H-benzo[c]chromen-3-yl)-2-methylpropanoic Acid], the Ki on CB1 receptor, at mCB2 receptor and at hCB2 receptor (setting [2]) was over 10000 nM each time.

`CCCCOC(=O)C(C)(C)c1cc(O)c2c(c1)OC(C)(C)[C@@H]1CCC(=O)C[C@@H]21` [Compound 3.4, Butyl-2-((6aR,10aR)-6a,7,8,9,10,10a-hexahydro-1-hydroxy-6,6-dimethyl-9-oxo-6H-benzo[c]chromen-3-yl)-2-methylpropanoate]: the Ki on CB1 receptor was determined as 2.2 nM; at mCB2 receptor it was 7.2 nM; on hCB2 receptor (setting [2]), 6.2 nM.

Regarding `CC(C)(C(=O)O)c1cc(O)c2c(c1)OC(C)(C)[C@@H]1CC[C@@H](O)C[C@@H]21` [Compound 3.5, 2-((6aR,9R,10aR)-6a,7,8,9,10,10a-hexahydro-1,9-dihydroxy-6,6-dimethyl-6H-benzo[c]chromen-3-yl)-2-methylpropanoic Acid], the Ki at CB1 receptor, at mCB2 receptor and on hCB2 receptor (setting [2]) was over 10000 nM in each case.

As to `CC(C)(C(=O)O)c1cc(O)c2c(c1)OC(C)(C)[C@@H]1CC[C@H](O)C[C@@H]21` [Compound 3.7, 2-((6aR,9S,10aR)-6a,7,8,9,10,10a-hexahydro-1,9-dihydroxy-6,6-dimethyl-6H-benzo[c]chromen-3-yl)-2-methylpropanoic Acid], the Ki at CB1 receptor, at mCB2 receptor and at hCB2 receptor (setting [2]) was over 10000 nM in each case.

With `CCCCOC(=O)C(C)(C)c1cc(O)c2c(c1)OC(C)(C)[C@@H]1CC[C@@H](CO)C[C@H]21` [Compound 3.9, Butyl 2-((6aR,9R,10aS)-1-hydroxy-9-(hydroxymethyl)-6,6-dimethyl-6a,7,8,9,10,10a-hexahydro-6H-benzo[c]chromen-3-yl)-2-methylpropanoate], the Ki is 2.4 nM on CB1 receptor, 4.3 nM at mCB2 receptor and 6.5 nM on hCB2 receptor (setting [2]).

In data set [1], `CCCCCCC(C)(C)c1cc(O)c2c(c1)OC(C)(C)[C@@H]1CCC(=O)OC[C@@H]21` [Compound 3.10, (5aR,11bR)-11-hydroxy-6,6-dimethyl-9-(2-methyloctan-2-yl)-4,5,5a,6-tetrahydro-1H-oxepino[4,3-c]chromen-3(11bH)-one] displayed a half-life at 200 μM of 15 min.

Consider `CCOC(=O)C(C)(C)c1cc(OC)c(-c2cccc(C#N)c2)c(OC)c1` [Compound 4.1, Ethyl 2-(3′-cyano-2,6-dimethoxybiphenyl-4-yl)-2-methylpropanoate], for which the Ki at CB1 receptor, at mCB2 receptor and on hCB2 receptor (setting [2]) was over 1000 nM throughout.

In the case of `CCOC(=O)C(C)(C)c1cc(OC)c(-c2cc(C)cc(C)c2)c(OC)c1` [Compound 4.3, Ethyl 2-(2,6-dimethoxy-3′,5′-dimethylbiphenyl-4-yl)-2-methylpropanoate], the Ki on CB1 receptor, at mCB2 receptor and on hCB2 receptor (setting [2]) was 1000 nM each time.

In the case of `CCOC(=O)C(C)(C)c1cc(O)c(-c2cc(C)cc(C)c2)c(O)c1` [Compound 4.4, Ethyl 2-(2,6-dihydroxy-3′,5′-dimethylbiphenyl-4-yl)-2-methylpropanoate], the Ki on CB1 receptor came to 941 nM; at mCB2 receptor, 36 nM; at hCB2 receptor (setting [2]) it was 48.8 nM.

For `CCOC(=O)C(C)(C)c1cc(O)c(-c2cc(C)cc(C)c2)c(OC)c1` [Compound 4.5, Ethyl 2-(2-hydroxy-6-methoxy-3′,5′-dimethylbiphenyl-4-yl)-2-methylpropanoate], the Ki was found to be 1000 nM on CB1 receptor, 108 nM on mCB2 receptor and 375 nM at hCB2 receptor (setting [2]).

For the compound `CCOC(=O)C(C)(C)c1cc(OC)c(-c2cc(Cl)cc(Cl)c2)c(OC)c1` [Compound 4.6, Ethyl 2-(3′,5′-dichloro-2,6-dimethoxybiphenyl-4-yl)-2-methylpropanoate], the Ki at CB1 receptor, on mCB2 receptor and at hCB2 receptor (setting [2]) was 1000 nM in each case.

Usually Ki stands for the dissociation constant of the complex between target and ligand, obtained from inhibition or displacement. For orientation: half-life means the time in which the quantity being followed falls by half. High values mean slow decline, low ones rapid decline.
